# Measurements published in patent EP0532512B1, “USE OF PLATELET ACTIVATING FACTOR ANTAGONISTS AS ANTI-PRURITIC AGENTS” (ALLERGAN, INC., priority 1990, dated 1991).
# Where a SMILES comes first, the peptide text is derived from it.
# Columns and labels:
# albino guinea-pig eye = experiment: Pruritogenic activity of autocoids: topical drop to the eye (conjunctiva), scratching episodes counted over 15 minutes; type: in vivo; settings: for NO OF SCRATCH EPISODES (X̄ ± SEM): 15 minutes, n=12; for pruritogenic activity (in words): summary of Table 1
# Excerpt: (§1) A more complete appreciation of the invention may be obtained from the following Examples. As a means of providing an atraumatic experimental model of itching, the conjunctiva was used as a convenient tissue site. Pruritogenic agents may be administered to the conjunctiva without the need to traumatize the tissue by injection or scarification. The itch sensation is elicited peripherically by local, atraumatic application of the pruritogen. Of equal importance is the ability of this model to identify locally acting anti-pruritic agents without concerns regarding local tissue trauma or, in the case of systemically administered agents, sedation.
# (§2) The pruritogenic activity of numerous and structurally diverse autocoids was examined as follows. A 20 µl drop of a solution of the particular autocoid under evaluation was topically administered to one albino guinea-pig eye, the contralateral eye received 20 µl of vehicle as a control. For PAF studies, the R=15 version of formula I was used and was taken up in 0.5% ultrapure bovine serum albumin. The guinea pig was then replaced in its cage and the number of scratching episodes was recorded over the 15 subsequent minute period. The retention of the experimental animal in familiar surroundings is an important factor in experimental design. Scratching, which is the typical mammalian behavioral response to the itch sensation, provides an indication of the intensity of the perceived itch sensation and can be quantified by recording the frequency at which itch-scratch episodes occur per unit time: 15 minutes in the case of these examples.
# PAF induced pruritus = experiment: Attenuation of PAF induced pruritus by 30 minute topical pretreatment (conjunctival itch-scratch model); type: in vivo, guinea-pig; settings: for scratch episodes, TREATED GROUP (mean ± SEM): 30 minute topical pretreatment, n=12
# Excerpt: as §1, §2
# The ability of a 30 minute topical pretreatment with selected PAF antagonists to attenuate PAF induced pruritus is shown in Table 2.
# [1] = tested on: experimental allergic itching; experiment: Experimental allergic itching: conjunctival antigen (chicken ovalbumin) challenge in presensitized animals after pretreatment; type: in vivo; settings: n=8-10
# Excerpt: as §1
# In addition to pharmacological studies on pruritogenic autocoids, the conjunctiva may be used as a convenient site for modelling diseases where itching is a major symptom. In animals presensitized to a particular antigen, subsequent topical challenge with that antigen results in conjunctival itching. This may be regarded as an experimental model of itching which has general relevance to clinically encountered pruritus. In the studies described herein, chicken ovalbumin was used as an antigenic substance and the ability of PAF antagonist pretreatment to block the itching response was examined (Table 3).
# [2] = dose 10 μg, 20 µl drop topically to one eye
# [3] = dose 100 μg, 20 µl drop topically to one eye
molecule,measurement,setting,value
CCCCC/C=C\C/C=C\C/C=C\C=C\C(O)CCCC(=O)O (stereo not shown) [5-Hydroxytetraemoic Acid],NO OF SCRATCH EPISODES (X̄ ± SEM),albino guinea-pig eye; [2],0.33 ± 0.22
"CC(=O)O [10mM ACETIC ACID, ACETIC ACID]",NO OF SCRATCH EPISODES (X̄ ± SEM),"albino guinea-pig eye; pain producing stimulus solution, no dose printed (--)",0.42 ± 0.19
same,pruritogenic activity (in words),albino guinea-pig eye,virtual absence of an itch-scratch response
CCCCC/C=C\CC(O)/C=C/C=C\C/C=C\CCCC(=O)O (stereo not shown) [12-Hydroxytetraemoic Acid],NO OF SCRATCH EPISODES (X̄ ± SEM),albino guinea-pig eye; [2],0.08 ± 0.08
CCCCCC(O)/C=C/C=C\C/C=C\C/C=C\CCCC(=O)O (stereo not shown) [15-Hydroxytetraemoic Acid],NO OF SCRATCH EPISODES (X̄ ± SEM),albino guinea-pig eye; [2],0.08 ± 0.08
CCCCCCCCCCCCCCCCCCNC(=O)OCC(COC(=O)N(Cc1cccc[n+]1CC)C(C)=O)OC (stereo not shown) [Compound of formula (II)],"scratch episodes, TREATED GROUP (mean ± SEM)","PAF induced pruritus; 10 mg/ml, vs 1 µg PAF",2.67 ± 0.68
same,"scratch episodes, TREATED GROUP (mean ± SEM)","PAF induced pruritus; 10 mg/ml, vs 10 µg PAF",6.50 ± 1.09
same,"scratch episodes, TREATED GROUP",[1]; 1 mg/ml pretreatment vs 100 µG antigen,7.62 ± 0.96
"CC1C(=O)OC2C(O)C34C5CC(C(C)(C)C)C36C(OC(=O)C6O)OC4(C(=O)O5)C12O (stereo not shown) [Compound of formula (III), Ginkgolide B]","scratch episodes, TREATED GROUP (mean ± SEM)","PAF induced pruritus; 10 mg/ml, vs 10 µg PAF",8.42 ± 1.37
same,"scratch episodes, TREATED GROUP",[1]; 10 mg/ml pretreatment vs 100 µG antigen,6.87 ± 1.61
Cc1nnc2n1-c1sc(CCC(=O)N3CCOCC3)cc1C(c1ccccc1Cl)=NC2 [Compound of formula (IV)],"scratch episodes, TREATED GROUP (mean ± SEM)","PAF induced pruritus; 5 mg/ml, vs 1 µg PAF",0.33 ± 0.19
same,"scratch episodes, TREATED GROUP (mean ± SEM)","PAF induced pruritus; 5 mg/ml, vs 10 µg PAF",5.25 ± 0.98
same,"scratch episodes, TREATED GROUP",[1]; 10 mg/ml pretreatment vs 10 µG antigen,5.00 ± 1.10
C[C@H](N)C(=O)NCC(=O)N[C@@H](CO)C(=O)N[C@@H](CCC(=O)O)C(=O)O [L-alanylglycyl-L-seryl-L-glutamic acid] (H-AGSE-OH),NO OF SCRATCH EPISODES (X̄ ± SEM),"albino guinea-pig eye; dose 1000 μg, 20 µl drop topically to one eye",1.42 ± 0.47
CC(C)[C@H](N)C(=O)NCC(=O)N[C@@H](CC(=O)O)C(=O)N[C@@H](CCC(=O)O)C(=O)O [L-valylglycyl-L-aspartyl-L-glutamic acid] (H-VGDE-OH),NO OF SCRATCH EPISODES (X̄ ± SEM),albino guinea-pig eye; [3],0.92 ± 0.26
CCCCC/C=C\C[C@@H](O)/C=C/C=C/C=C\[C@@H](O)CCCC(=O)O [LEUKOTRIENE B4],NO OF SCRATCH EPISODES (X̄ ± SEM),albino guinea-pig eye; [2],0.42 ± 0.23
CCCCC/C=C\C\C=C/C=C/C=C/[C@@H](SC[C@H](NC(=O)CC[C@H](N)C(=O)O)C(=O)NCC(=O)O)[C@@H](O)CCCC(=O)O [LEUKOTRIENE C4],NO OF SCRATCH EPISODES (X̄ ± SEM),albino guinea-pig eye; [2],0.58 ± 0.36
CCCCCCCCCCCCCCCCOC[C@@H](O)COP(=O)([O-])OCC[N+](C)(C)C [LYSO-PAF],NO OF SCRATCH EPISODES (X̄ ± SEM),"albino guinea-pig eye; dose 1 μg, 20 µl drop topically to one eye",0.92 ± 0.26
same,NO OF SCRATCH EPISODES (X̄ ± SEM),albino guinea-pig eye; [2],2.67 ± 0.73
same,NO OF SCRATCH EPISODES (X̄ ± SEM),albino guinea-pig eye; [3],13.0 ± 1.58
same,pruritogenic activity (in words),albino guinea-pig eye,relatively weak activity
"CCCCCCCCCCCCCCCCOCC(COP(=O)([O-])OCC[N+](C)(C)C)OC(C)=O (stereo not shown) [PAF, 1-O-alkyl-2-acetyl-sn-glycero-3-phosphocholine]",pruritogenic activity (in words),albino guinea-pig eye,most potent pruritogenic agent
CCCCC[C@H](O)/C=C/[C@@H]1[C@@H](C/C=C\CCCC(=O)O)[C@@H](O)C[C@H]1O [PROSTAGLANDIN F2α],NO OF SCRATCH EPISODES (X̄ ± SEM),albino guinea-pig eye; [3],1.75 ± 0.37
COc1ccc(CN(CCN(C)C)c2ccccn2)cc1 [Pyrilamine],"scratch episodes, TREATED GROUP (mean ± SEM)","PAF induced pruritus; 0.1 mg/ml, vs 1 µg PAF",4.17 ± 0.91
same,"scratch episodes, TREATED GROUP (mean ± SEM)","PAF induced pruritus; 0.1 mg/ml, vs 10 µg PAF",14.25 ± 1.75
same,block of PAF induced pruritus (in words),PAF induced pruritus; summary of Table 2,not
"Bradykinin (RPPGFSPFR; Bradykinin; UniProt P01042 381-389, looked up)",NO OF SCRATCH EPISODES (X̄ ± SEM),albino guinea-pig eye; [2],0.50 ± 0.23
same,NO OF SCRATCH EPISODES (X̄ ± SEM),albino guinea-pig eye; [3],4.00 ± 0.90
